Test: Solubility of Compound A
Type: physicochemical
Protocol: The present invention addresses the prior art issues of low bioavailability of certain drugs such as COX-2 selective inhibitors useful for the treatment of, for example, arthritis and rheumatic pain. […] Compound A, a COX-2 selective inhibitor, is a white to off-white odorless crystalline, anhydrous powder. At room temperature it is soluble in methylene chloride, and acetonitrile. […] The aqueous solubility of the drug is less than 2 µg/mL at 22 degrees Celsius at pH 6.2.

solubility in methylene chloride, and acetonitrile (room temperature): soluble
solubility in water (water): poorly soluble
SMILES: CS(=O)(=O)c1ccc(/C(=C2\CCOC2=O)c2ccc(Br)cc2)cc1 [Compound A, (Z)-3-[1-(4-bromophenyl)-1-(4-methylsulfonylphenyl)methylidine]-dihydrofuran-2-one]
